Data taken from PubChem BioAssay AID2060895 (Molecular Pharmacology Branch, DTP, NCI, 2025).

Tested on: PDC 899932-113-R3-J6 complex spheroid viability
Test: Anticancer human tumor 899932-113-R3-J6-PDC patient-derived melanoma cell line growth inhibition [RAS]
Settings: for IC50: curve of first compound; for viability, T/C: stronger effect = lower value; active = viability on the fitted dose curve at most 10% of control; inactive = the rest
Summary of the method: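 Agents were tested in combination matrices in half-log decrements from a top concentration at or near clinical Cmax (10 microM if undetermined). Targets were multi-cell spheroids of tumour lines plus HUVEC and MSC stromal cells.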

[1] = second compound 0.000949 µM, first compound 0.0316 µM
[2] = second compound 0.000949 µM, first compound 0.1 µM
[3] = second compound 0.000949 µM, first compound 0.316 µM
[4] = second compound 0.000949 µM, first compound 1 µM
[5] = second compound 0.000949 µM, first compound 3.16 µM
[6] = second compound 0.000949 µM, first compound 10 µM
[7] = second compound 0.003 µM, first compound 0.0316 µM
[8] = second compound 0.003 µM, first compound 0.1 µM
[9] = second compound 0.003 µM, first compound 0.316 µM
[10] = second compound 0.003 µM, first compound 1 µM
[11] = second compound 0.003 µM, first compound 3.16 µM
[12] = second compound 0.003 µM, first compound 10 µM
[13] = second compound 0.00949 µM, first compound 0.0316 µM
[14] = second compound 0.00949 µM, first compound 0.1 µM
[15] = second compound 0.00949 µM, first compound 0.316 µM
[16] = second compound 0.00949 µM, first compound 1 µM
[17] = second compound 0.00949 µM, first compound 3.16 µM
[18] = second compound 0.00949 µM, first compound 10 µM
[19] = second compound 0.03 µM, first compound 0.0316 µM
[20] = second compound 0.03 µM, first compound 0.1 µM
[21] = second compound 0.03 µM, first compound 0.316 µM
[22] = second compound 0.03 µM, first compound 1 µM
[23] = second compound 0.03 µM, first compound 3.16 µM
[24] = second compound 0.03 µM, first compound 10 µM
[25] = second compound 0.0949 µM, first compound 0.0316 µM
[26] = second compound 0.0949 µM, first compound 0.1 µM
[27] = second compound 0.0949 µM, first compound 0.316 µM
[28] = second compound 0.0949 µM, first compound 1 µM
[29] = second compound 0.0949 µM, first compound 3.16 µM
[30] = second compound 0.0949 µM, first compound 10 µM
[31] = second compound 0.3 µM, first compound 0.0316 µM
[32] = second compound 0.3 µM, first compound 0.1 µM
[33] = second compound 0.3 µM, first compound 0.316 µM
[34] = second compound 0.3 µM, first compound 1 µM
[35] = second compound 0.3 µM, first compound 3.16 µM
[36] = second compound 0.3 µM, first compound 10 µM
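Throughout, for viability, T/C: spheroids exposed to agents for seven days before readout; 100% = DMSO vehicle control wells.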

CC(C)NCC(C(=O)N1CCN(c2ncnc3c2C(C)CC3O)CC1)c1ccc(Cl)cc1 (stereo unspecified) + CCn1c(-c2cccnc2C(C)OC)c2c3cc(ccc31)N1CCOC(CC(NC(=O)C(C(C)C)N(C)C(=O)C3(F)CCN(C(=O)C#CC(C)(C)N(C)C)CC3)C(=O)N3CCCC(N3)C(=O)OCC(C)(C)C2)C1
4900 nM: IC50 (second compound 0.03 µM)
5970 nM: IC50 (second compound 0.003 µM)
5520 nM: IC50 (second compound 0.000949 µM)
2640 nM: IC50 (second compound 0.3 µM)
5590 nM: IC50 (second compound 0.00949 µM)
inactive: viability, T/C [1] 105% | viability, T/C [2] 97.3% | viability, T/C [3] 97% | viability, T/C [4] 84.2% | viability, T/C [5] 62.5% | viability, T/C [6] 36.5% | viability, T/C [7] 112% | viability, T/C [8] 106% | viability, T/C [9] 97.3% | viability, T/C [10] 80% | viability, T/C [11] 68.7% | viability, T/C [12] 36.5% | viability, T/C [13] 111% | viability, T/C [14] 107% | viability, T/C [15] 96% | viability, T/C [16] 90.7% | viability, T/C [17] 59.2% | viability, T/C [18] 39% | viability, T/C [19] 99.3% | viability, T/C [20] 105% | viability, T/C [21] 96.2% | viability, T/C [22] 80.8% | viability, T/C [23] 58% | viability, T/C [24] 38% | viability, T/C [25] 97.3% | viability, T/C [26] 97.8% | viability, T/C [27] 88% | viability, T/C [28] 71.4% | viability, T/C [29] 53.8% | viability, T/C [30] 36.7% | viability, T/C [31] 89.1% | viability, T/C [32] 84.8% | viability, T/C [33] 74.3% | viability, T/C [34] 60.2% | viability, T/C [35] 49.5% | viability, T/C [36] 32.6%
3860 nM: IC50 (second compound 0.0949 µM)

CC(Nc1ccc2c(c1)OCCn1cc(N3C(=O)OCC3C(F)F)nc1-2)C(N)=O (stereo unspecified) + CCn1c(-c2cccnc2C(C)OC)c2c3cc(ccc31)N1CCOC(CC(NC(=O)C(C(C)C)N(C)C(=O)C3(F)CCN(C(=O)C#CC(C)(C)N(C)C)CC3)C(=O)N3CCCC(N3)C(=O)OCC(C)(C)C2)C1
1870 nM: IC50 (second compound 0.003 µM)
1370 nM: IC50 (second compound 0.03 µM)
153 nM: IC50 (second compound 0.3 µM)
1620 nM: IC50 (second compound 0.000949 µM)
650 nM: IC50 (second compound 0.0949 µM)
1380 nM: IC50 (second compound 0.00949 µM)
inactive: viability, T/C [1] 94.8% | viability, T/C [2] 78.5% | viability, T/C [3] 64.5% | viability, T/C [4] 56.1% | viability, T/C [5] 43.4% | viability, T/C [6] 36.1% | viability, T/C [7] 90.1% | viability, T/C [8] 80.9% | viability, T/C [9] 67% | viability, T/C [10] 55.6% | viability, T/C [11] 46% | viability, T/C [12] 34.1% | viability, T/C [13] 94.7% | viability, T/C [14] 80.5% | viability, T/C [15] 66.4% | viability, T/C [16] 51.2% | viability, T/C [17] 44.6% | viability, T/C [18] 36% | viability, T/C [19] 86.5% | viability, T/C [20] 75.8% | viability, T/C [21] 59.8% | viability, T/C [22] 57.2% | viability, T/C [23] 40.5% | viability, T/C [24] 34% | viability, T/C [25] 79.5% | viability, T/C [26] 64.7% | viability, T/C [27] 57% | viability, T/C [28] 46% | viability, T/C [29] 39.2% | viability, T/C [30] 31.8% | viability, T/C [31] 69.5% | viability, T/C [32] 52% | viability, T/C [33] 45% | viability, T/C [34] 36.9% | viability, T/C [35] 34.2% | viability, T/C [36] 29.4%

O=C(c1ccc(F)c(F)c1Nc1ccc(I)cc1F)N1CC(O)([C@@H]2CCCCN2)C1 + CCn1c(-c2cccnc2C(C)OC)c2c3cc(ccc31)N1CCOC(CC(NC(=O)C(C(C)C)N(C)C(=O)C3(F)CCN(C(=O)C#CC(C)(C)N(C)C)CC3)C(=O)N3CCCC(N3)C(=O)OCC(C)(C)C2)C1
6.85 nM: IC50 (second compound 0.0949 µM)
inactive: viability, T/C (second compound 0.000949 µM, first compound 0.00316 µM) 72.5% | viability, T/C (second compound 0.000949 µM, first compound 0.01 µM) 45.1% | viability, T/C (second compound 0.003 µM, first compound 0.00316 µM) 72.3% | viability, T/C (second compound 0.003 µM, first compound 0.01 µM) 43.3% | viability, T/C (second compound 0.00949 µM, first compound 0.00316 µM) 72.4% | viability, T/C (second compound 0.00949 µM, first compound 0.01 µM) 45.5% | viability, T/C (second compound 0.03 µM, first compound 0.00316 µM) 71.6% | viability, T/C (second compound 0.03 µM, first compound 0.01 µM) 38.9% | viability, T/C (second compound 0.0949 µM, first compound 0.00316 µM) 73% | viability, T/C (second compound 0.0949 µM, first compound 0.01 µM) 38.8% | viability, T/C (second compound 0.3 µM, first compound 0.00316 µM) 60.2% | viability, T/C (second compound 0.3 µM, first compound 0.01 µM) 29.6%
7.67 nM: IC50 (second compound 0.003 µM)
active: viability, T/C [1] 4.63% | viability, T/C [2] 3.49% | viability, T/C [3] 1.64% | viability, T/C [4] 0.82% | viability, T/C [7] 4.76% | viability, T/C [8] 3.09% | viability, T/C [9] 1.48% | viability, T/C [10] 0.53% | viability, T/C [13] 5.4% | viability, T/C [14] 3.03% | viability, T/C [15] 1.85% | viability, T/C [16] 0.35% | viability, T/C [19] 5.26% | viability, T/C [20] 3.43% | viability, T/C [21] 1.55% | viability, T/C [22] 0.48% | viability, T/C [25] 4.74% | viability, T/C [26] 2.54% | viability, T/C [27] 1.48% | viability, T/C [28] 0.61% | viability, T/C [31] 3.92% | viability, T/C [32] 2.9% | viability, T/C [33] 0.95% | viability, T/C [34] 0.52%
8.14 nM: IC50 (second compound 0.000949 µM)
6.76 nM: IC50 (second compound 0.03 µM)
8.24 nM: IC50 (second compound 0.00949 µM)
4.64 nM: IC50 (second compound 0.3 µM)
